Assay results taken from article PMC5803145, “Study on the Structural Effect of Maltoligosaccharides on Cytochrome c Complexes Stabilities by Native Mass Spectrometry” (Natural Products and Bioprospecting, 2018).

biological target: T1, Cytochrome c (Cyt c) from equine / horse heart (Equus caballus, UniProt P00004); assay: native ESI-MS, deconvoluted peak ratios; format: binding; settings: aqueous solution, 0.5 uM Cyt c, 3-7 uM ligand, room temperature, 1 h; stepwise constant of the 1:1 complex
T1 construct: gene CYCS; mature heme-containing protein
Description: native ESI-MS, deconvoluted peak ratios on Cytochrome c (Cyt c) from equine / horse heart

T1 sequence (P00004 2-105): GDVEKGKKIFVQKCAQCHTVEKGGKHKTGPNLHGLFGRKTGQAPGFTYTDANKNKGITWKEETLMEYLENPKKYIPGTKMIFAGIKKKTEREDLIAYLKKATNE

Ka,1 (10^4 L mol^-1)	Structure (SMILES)
2.438 x 10^4 (RSD 2.5%)	OC[C@H]1O[C@H](O[C@H]2[C@H](O)[C@@H](O)[C@@H](O[C@H]3[C@H](O)[C@@H](O)[C@@H](O[C@H]4[C@H](O)[C@@H](O)[C@@H](O[C@H]5[C@H](O)[C@@H](O)[C@@H](O[C@H]6[C@H](O)[C@@H](O)C(O)O[C@@H]6CO)O[C@@H]5CO)O[C@@H]4CO)O[C@@H]3CO)O[C@@H]2CO)[C@H](O)[C@@H](O)[C@@H]1O (stereo partly drawn) [Mal VI, maltohexaose]
3.279 x 10^4 (RSD 5.6%)	OC[C@H]1O[C@H](O[C@H]2[C@H](O)[C@@H](O)[C@@H](O[C@H]3[C@H](O)[C@@H](O)[C@@H](O[C@H]4[C@H](O)[C@@H](O)C(O)O[C@@H]4CO)O[C@@H]3CO)O[C@@H]2CO)[C@H](O)[C@@H](O)[C@@H]1O (stereo partly drawn) [Mal IV, maltotetraose]
2.654 x 10^4 (RSD 0.80%)	OC[C@H]1O[C@H](O[C@H]2[C@H](O)[C@@H](O)[C@@H](O[C@H]3[C@H](O)[C@@H](O)[C@@H](O[C@H]4[C@H](O)[C@@H](O)[C@@H](O[C@H]5[C@H](O)[C@@H](O)C(O)O[C@@H]5CO)O[C@@H]4CO)O[C@@H]3CO)O[C@@H]2CO)[C@H](O)[C@@H](O)[C@@H]1O (stereo partly drawn) [Mal V, maltopentaose]

Continued, molecule first:

Structure (SMILES)	Ka,1 (10^4 L mol^-1)
OC[C@H]1O[C@H](O[C@H]2[C@H](O)[C@@H](O)C(O)O[C@@H]2CO)[C@H](O)[C@@H](O)[C@@H]1O (stereo partly drawn) [Mal II, maltose]	3.227 x 10^4 (RSD 2.9%)
OC[C@H]1O[C@H](O[C@H]2[C@H](O)[C@@H](O)[C@@H](O[C@H]3[C@H](O)[C@@H](O)C(O)O[C@@H]3CO)O[C@@H]2CO)[C@H](O)[C@@H](O)[C@@H]1O (stereo partly drawn) [Mal III, maltotriose]	3.842 x 10^4 (RSD 2.5%)
OC[C@H]1O[C@H](O[C@H]2[C@H](O)[C@@H](O)[C@@H](O[C@H]3[C@H](O)[C@@H](O)[C@@H](O[C@H]4[C@H](O)[C@@H](O)[C@@H](O[C@H]5[C@H](O)[C@@H](O)[C@@H](O[C@H]6[C@H](O)[C@@H](O)[C@@H](O[C@H]7[C@H](O)[C@@H](O)C(O)O[C@@H]7CO)O[C@@H]6CO)O[C@@H]5CO)O[C@@H]4CO)O[C@@H]3CO)O[C@@H]2CO)[C@H](O)[C@@H](O)[C@@H]1O (stereo partly drawn) [Mal VII, maltoheptaose]	2.205 x 10^4 (RSD 1.6%)
